# How the values were obtained:
# Assay type in all cases: in vivo, human
# [1] = test system: subjects with gambling disorder; assay: Gambling Related Cognitions Scale (GRCS), gambling expectancy, Example 7; details: for problem gambling expectancy score (GRCS) at 2-week follow up: after 100 mg racemic ketamine sublingual; for problem gambling expectancy score (GRCS), pre-administration: baseline before 100 mg racemic ketamine sublingual; for % change in problem gambling expectancy: pre-administration to 2-week follow up, 100 mg racemic ketamine sublingual
# Procedure: The study spanned a total of 30 days (not counting initial contact and prescreening). Prescreening of all subjects was conducted by phone, and subjects recorded self-report measures, including the Sensitivity to Punishment and Sensitivity to Reward Questionnaire (SPSRQ) and the Gambling Related Cognitions Questionnaire. Prior to beginning treatment, each subject completed the Beck Depression Inventory (BDI) to determine a baseline depression score. Total scores of 0-13 are minimal, 14-19 are mild, 20-28 are moderate, and 29-63 are severe (Beck, Steer, and Brown, 1996).
# The remaining follow-up sessions were completed online. Follow-up 1 was completed on Day 4, Follow-up 2 on Day 14, and Follow-up 3 on Day 30. At each follow-up session, the same self-report measures and behavioural tasks were completed.
# The five-factor Gambling Related Cognitions Scale (GRCS) was also assessed. The GRCS evaluates gambling-related cognitive distortions for all types of gamblers, regardless of their gambling activities (poker, slots, horse racing, etc.) (Levesque et al., 2017). The GRCS contains five main domains, including inability to stop, expectancies, predictive control, illusion of control, and interpretative bias (Muela, Navas, and Perales, 2021). Gambling expectancy and inability to stop were predictive of problem gambling.
# [2] = test system: subjects with gambling disorder; assay: Adverse events, Ketamine Side Effect Tool (KSET), Example 7; details: five gambling disorder subjects; 100 mg racemic ketamine sublingual
# Procedure: Adverse events were assessed with the Ketamine Side Effect Tool (KSET).
# [3] = test system: subjects with binge eating disorder; assay: Binge Eating Scale (BES), Example 8; details: for Binge Eating Scale score at 2-week follow up / BES classification at two-week follow up: after 100 mg racemic ketamine sublingual; for BES classification, pre-administration / Binge Eating Scale score, pre-administration: baseline before 100 mg racemic ketamine sublingual; for % change in Binge Eating Scale: pre-administration to 2-week follow up, 100 mg racemic ketamine sublingual
# Description: Binge eating disorder may be characterised as being mild, moderate, and severe. The severity of binge eating disorder may be determined by the Binge Eating Scale (BES), wherein a score below 17 indicates no binge eating disorder, a score of between 18-20 indicates mild binge eating disorder, a score of between 21-27 indicates moderate binge eating disorder, and a score above 27 indicates severe binge eating disorder (Grupski et al., 2013), or based on ordinary skill. In embodiments, a patient may have binge eating disorder characterised as being mild. In other embodiments, a patient may have binge eating disorder characterised as being moderate. In other embodiments, a patient may have binge eating disorder characterised as being severe.
# A study was completed on the use of ketamine to treat binge eating disorder. Subjects were assessed for binge eating disorder using the Binge Eating Scale (BES), and included if they received a BES score greater than 15. Three subjects in total were included (BE1-BE3, and interchangeably on FIGS. 5 and 6 as BED1-BED3, these being the same subjects). All three were administered sublingual lozenges comprising 100 mg of racemic ketamine.
# The treatment protocol commenced in substantially the same way as disclosed in the ketamine in subjects with gambling disorder study completed in EXAMPLE 7, with the exceptions outlined as follows: No behavioural tasks were completed. Blood samples collected every 10 minutes from the time of administration to 90 minutes post-administration were additionally analysed for leptin and ghrelin. Self-report measures included the Binge Eating Scale, the Adult Attachment Interview (AAI), a 20 question interview about the subject's recollections of their childhood (Sykes and Turner, 2015); the Childhood Trauma Questionnaire; the Morningness-Eveningness Questionnaire (MEQ), a 19-item questionnaire designed to assess when a respondent prefers to wake up or start sleep (American Thoracic Society, 2022); the DSM-5 Binge Eating Disorder diagnostic criteria; and the SPSRQ.
# [4] = test system: subjects with binge eating disorder; assay: Adverse events, KSET, Example 8; details: three binge eating disorder subjects; 100 mg racemic ketamine sublingual
# [5] = test system: subjects with gaming disorder; assay: Adverse events, KSET, Example 9; details: three gaming disorder subjects; 100 mg racemic ketamine sublingual
# subjects with CSBD [6] = assay: Hours of pornography viewed per day, Example 10; details: for hours of pornography watched daily at 2-week follow up: after 100 mg racemic ketamine sublingual; for hours of pornography watched daily, pre-administration: baseline before 100 mg racemic ketamine sublingual; for % change in hours of pornography viewed: pre-administration to 2-week follow up, 100 mg racemic ketamine sublingual
# Procedure: (§1) A study was completed on the use of ketamine to treat CSBD. Subjects were assessed for CSBD using the Problematic Pornography Use Scale (PPUS) and were included if they received an PPUS score greater than 3. Three subjects in total were included (CSB1-CSB3). All three were administered sublingual lozenges comprising 100 mg of racemic ketamine.
# (§2) The treatment protocol commenced in the same way as disclosed in the ketamine in subjects with gambling disorder study completed in EXAMPLE 7, with the exceptions outlined as follows: No behavioural tasks were completed. Self-report measures completed during EXAMPLE 10 included the Emotional Intimacy Measure, the Childhood Trauma Questionnaire, the Generalised Anxiety Disorder-7 (GAD-7), the Morningness-Eveningness Questionnaire (MEQ), and the Problematic Pornography Questionnaire (PPQ), the Acceptance and Action Questionnaire, and the Psychological and Interpersonal Relationship Scales (PAIRS).
# subjects with CSBD [7] = assay: Sensitivity to reward (SPSRQ), Example 10; details: for Sensitivity to Reward at 2-week follow up: after 100 mg racemic ketamine sublingual; for Sensitivity to Reward, pre-administration: baseline before 100 mg racemic ketamine sublingual; for % change in Sensitivity to Reward: pre-administration to 2-week follow up, 100 mg racemic ketamine sublingual
# Procedure: Reward sensitivity was assessed using the SPSRQ. Behavioural tasks, EEG measurements, and subjective experience assessments were also completed.
# as §1, §2
smiles,measurement,setting,value
"CNC1(c2ccccc2Cl)CCCCC1=O (racemic) [ketamine, 2-(2-chlorophenyl)-2-(methylamino)-cyclohexanone]",problem gambling expectancy score (GRCS) at 2-week follow up,[1]; subject G1,5.5
same,"problem gambling expectancy score (GRCS), pre-administration",[1]; subject G1,5
same,% change in problem gambling expectancy,[1]; subject G1,+10%
same,problem gambling expectancy score (GRCS) at 2-week follow up,[1]; subject G2,2.5
same,"problem gambling expectancy score (GRCS), pre-administration",[1]; subject G2,5.5
same,% change in problem gambling expectancy,[1]; subject G2,−54.55%
same,problem gambling expectancy score (GRCS) at 2-week follow up,[1]; subject G3,4.5
same,"problem gambling expectancy score (GRCS), pre-administration",[1]; subject G3,5.25
same,% change in problem gambling expectancy,[1]; subject G3,−14.29%
same,problem gambling expectancy score (GRCS) at 2-week follow up,[1]; subject G4,2.5
same,"problem gambling expectancy score (GRCS), pre-administration",[1]; subject G4,3.75
same,% change in problem gambling expectancy,[1]; subject G4,−33.33%
same,problem gambling expectancy score (GRCS) at 2-week follow up,[1]; subject G5,1
same,"problem gambling expectancy score (GRCS), pre-administration",[1]; subject G5,1.25
same,% change in problem gambling expectancy,[1]; subject G5,−20%
same,course of adverse events,[2],"All adverse events were transient, and resolved two hours post-lozenge"
same,overall tolerability,[2],"well-tolerated, with no drop-outs"
same,unexpected adverse reactions (KSET),[2],No unexpected adverse reactions were observed
same,Binge Eating Scale score at 2-week follow up,[3]; subject BE1,24
same,"BES classification, pre-administration",[3]; subject BE1,moderate binge eating disorder (a score of between 21-27 indicates moderate binge eating disorder)
same,"Binge Eating Scale score, pre-administration",[3]; subject BE1,26
same,BES classification at two-week follow up,"[3]; subject BE1, moderate binge eating disorder pre-administration",remained so
same,% change in Binge Eating Scale,[3]; subject BE1,−7.69%
same,Binge Eating Scale score at 2-week follow up,[3]; subject BE2,35
same,"Binge Eating Scale score, pre-administration",[3]; subject BE2,32
same,% change in Binge Eating Scale,[3]; subject BE2,+9.38%
same,Binge Eating Scale score at 2-week follow up,[3]; subject BE3,28
same,"BES classification, pre-administration",[3]; subject BE3,severe binge eating disorder (a score above 27 indicates severe binge eating disorder)
same,"Binge Eating Scale score, pre-administration",[3]; subject BE3,42
same,% change in Binge Eating Scale,[3]; subject BE3,−33.33%
same,BES classification at two-week follow up,"[3]; subject BE3, severe binge eating disorder pre-administration",one point away from the moderate classification
same,course of adverse events,[4],"All adverse events were transient, and resolved two hours post-lozenge"
same,overall tolerability,[4],"well-tolerated, with no drop-outs"
same,unexpected adverse reactions (KSET),[4],no unexpected adverse reactions were observed
same,course of adverse events,[5],"All adverse events were transient, and resolved two hours post-lozenge"
same,overall tolerability,[5],"well-tolerated, with no drop-outs"
same,unexpected adverse reactions (KSET),[5],No unexpected adverse reactions were observed
same,hours of pornography watched daily at 2-week follow up,subjects with CSBD [6]; subject CSB1,0.5 h
same,"hours of pornography watched daily, pre-administration",subjects with CSBD [6]; subject CSB1,2 h
same,% change in hours of pornography viewed,subjects with CSBD [6]; subject CSB1,−75%
same,hours of pornography watched daily at 2-week follow up,subjects with CSBD [6]; subject CSB2,3 h
same,"hours of pornography watched daily, pre-administration",subjects with CSBD [6]; subject CSB2,4 h
same,% change in hours of pornography viewed,subjects with CSBD [6]; subject CSB2,−25%
same,hours of pornography watched daily at 2-week follow up,subjects with CSBD [6]; subject CSB3,1 h
same,"hours of pornography watched daily, pre-administration",subjects with CSBD [6]; subject CSB3,1 h
same,Sensitivity to Reward at 2-week follow up,subjects with CSBD [7]; subject CSB1,9
same,"Sensitivity to Reward, pre-administration",subjects with CSBD [7]; subject CSB1,10
same,% change in Sensitivity to Reward,subjects with CSBD [7]; subject CSB1,−10%
same,Sensitivity to Reward at 2-week follow up,subjects with CSBD [7]; subject CSB2,15
same,"Sensitivity to Reward, pre-administration",subjects with CSBD [7]; subject CSB2,15
same,Sensitivity to Reward at 2-week follow up,subjects with CSBD [7]; subject CSB3,9
same,"Sensitivity to Reward, pre-administration",subjects with CSBD [7]; subject CSB3,17
same,% change in Sensitivity to Reward,subjects with CSBD [7]; subject CSB3,−47.06%
